Where two headings read alike, the source gives them in different places.
Test system: IL4, IL13, IL31, CCL17, CCL26, CCL2 gene expression in Th2 stimulated human skin
Experiment: Th2 stimulated human skin explants, RT-qPCR of biomarkers
Format: cell-based
Conditions: for inhibition at 0.01 µM / inhibition at 0.04 µM / inhibition at 0.16 µM / inhibition at 0.63 µM / inhibition at 2.5 µM / inhibition at 10 µM: Homo sapiens, calculated to Th2 stimulated control; for inhibition at 2.5 µM: 2.50 μM
Text: Human skin biopsy tissue was stimulated to induce a Th17 immuno-phenotype using a method derived from Feghali-Bostwick et al. Induction of a Th17 phenotype in human skin—a mimic of dermal inflammatory diseases, Methods and Protocols, 2, 45 (2019). The pharmacodynamic assay described therein involves a similar paradigm to elicit a Th2 response and is used to evaluate the therapeutic potential of the active compounds (e.g., BETi1; and
Freshly excised healthy human skin tissue from abdominoplasties is defatted, cleaned and sectioned into 7 mm biopsies. The biopsies are placed in Transwell® inserts with the epidermis apical and exposed to air and the dermis submerged in media in the basal chamber. The biopsies are pre-treated overnight at 37° C., 5% CO2 with different compounds and controls added to the media in the basal chamber.
The next day, contents of the basal chamber is replaced with fresh media containing the test compound (listed below) and a stimulation cocktail for either Th2 inflammation (proprietary of service provider cocktail) or Th17 inflammation (mix of antibodies against CD3, CD28, IL-4, IFNγ and recombinant IL-1β, IL-6, IL-21, TGF-β). The biopsies are incubated at 37° C., 5% CO2 for a further 24 hrs.
A list of all the treatments is provided below: • 1. Untreated control (for both stimulations) • 2. Th2 stimulated control • 3. Th17 stimulated control • 4. Th2+BETia at 0.01, 0.04, 0.16, 0.63, 2.50, and 10 μM • 5. Th2+BETi1 at 0.01, 0.04, 0.16, 0.63, 2.50, and 10 μM • 6. Th2+Ruxolitinib at 0.01, 0.04, 0.16, 0.63, 2.50, and 10 μM • 7. Th2+betamethasone valerate 210 μM (equivalent to 0.01%) • 8. Th17+BETia at 10 μM • 9. Th17+BETi1 at 10 μM • 10. Th17+Ruxolitinib at 10 μM • 11. Th17+betamethasone valerate 210 μM (equivalent to 0.01%)
After harvesting, the biopsies are cut in half, and one half is homogenized and used for RNA extraction by standard methods and inflammatory pathways is assessed by RT-qPCR. The ability of BETi1 or BETia to inhibit the activity of up to six biomarkers per stimulation is reported as percent activity calculated to stimulated control and fold change in gene expression calculated to untreated control with respect to Th2 (IL4, IL13, IL31, CCL17, CCL26, CCL2) and Th17 (CXCL10, IL17α, IL22, IL36γ, CCL20, SerpinB4). Statistical analysis is performed on data sets from all 3 donors combined and compares the percent inhibition of each biomarker by each treatment calculated to its respective vehicle.
qPCR values were calculated using the relative quantification approach outlined by Livak, et al (2001) (Section 9, Reference 2). The Ct values (threshold cycle) defined as the fractional cycle number at which the amount of amplified target reaches a fixed threshold, were normalised to the Ct value of an internal biomarker or ‘housekeeping gene’ (GAPDH). The higher limit of detection was set at a Ct value of 40, and any target having not reached Ct by 40 cycles was set to this value. The delta Ct values (dt(Ct)) refers to the Ct of the gene of interest minus the Ct of the internal biomarker. The ddt(Ct) is the dt(Ct) value of the gene minus the average dt(Ct) value of the untreated samples. The ddt(Ct) is converted to power by the equation; =power(2,dt(Ct)). Fold change was calculated as ratio of the power of the gene of interest divided by the average power of the untreated samples. This normalizes the untreated samplers to a value of 1. For the comparison of multiple skin donors, the stimulated samples were normalized to 100% maximum activity (such to normalize variability between different skin donors). Percent activity was calculated as the percent increase or decrease in stimulation compared to the stimulated samples set at 100% maximum activity. Percent change was calculated as: Inhibition=(100−(avg % activity/stimulated)*100). Statistical analysis was performed using One-way ANOVA with Dunnett's Multiple Comparisons (non parametric). […]

[1] = Th2 stimulated human skin explants, 10 μM, compared to untreated skin

Compound: Cn1cc(-c2cccc(O)c2Oc2ccccc2)c2cc[nH]c2c1=O [BETi1]
- inhibition at 0.01 µM (read-out: % Inhibition CCL17): 22.4%
- inhibition at 0.01 µM (read-out: % Inhibition CCL26): 31.3%
- inhibition at 0.01 µM (read-out: % Inhibition IL31): < 0%
- inhibition at 0.01 µM (read-out: % inhibition CCL2): < 0%
- inhibition at 0.01 µM (read-out: % inhibition IL4): 20.4%
- inhibition at 0.01 µM (read-out: % inhibition IL13): 22.4%
- inhibition at 0.04 µM (read-out: % Inhibition CCL17): < 0%
- inhibition at 0.04 µM (read-out: % Inhibition CCL26): 10.9%
- inhibition at 0.04 µM (read-out: % Inhibition IL31): < 0%
- inhibition at 0.04 µM (read-out: % inhibition CCL2): < 0%
- inhibition at 0.04 µM (read-out: % inhibition IL4): 51.8%
- inhibition at 0.04 µM (read-out: % inhibition IL13): 3%
- inhibition at 0.16 µM (read-out: % Inhibition CCL26): 15.2%
- inhibition at 0.16 µM (read-out: % Inhibition IL31): ~74%
- inhibition at 0.16 µM (read-out: % inhibition CCL2): 40%
- inhibition at 0.16 µM (read-out: % inhibition IL4): 83.4%
- inhibition at 0.16 µM (read-out: % inhibition IL13): 76.3%
- inhibition at 0.63 µM (read-out: % Inhibition CCL17): 48%
- inhibition at 0.63 µM (read-out: % Inhibition CCL26): < 0%
- inhibition at 0.63 µM (read-out: % inhibition CCL2): 34.9%
- inhibition at 0.63 µM (read-out: % inhibition IL4): ~80%
- inhibition at 0.63 µM (read-out: % inhibition IL13): ~84%
- inhibition at 2.5 µM (read-out: % Inhibition CCL17): 62.3%
- inhibition at 2.5 µM (read-out: % Inhibition CCL26): < 0%
- inhibition at 2.5 µM (read-out: % inhibition CCL2): 76.5%
- inhibition at 2.5 µM (read-out: % inhibition IL4): 82%
- inhibition at 2.5 µM (read-out: % inhibition IL13): 90.2%
- inhibition at 10 µM (10 μM, read-out: % Inhibition CCL17): ~62%
- inhibition at 10 µM (10 μM, read-out: % Inhibition CCL26): < 0%
- inhibition at 10 µM (10 μM, read-out: % Inhibition IL31): 95.4%
- inhibition at 10 µM (10 μM, read-out: % inhibition IL4): 74.9%
- inhibition at 10 µM (10 μM, read-out: % inhibition IL13): 93.3%
- highest percent inhibition of IL4, IL13, IL31, and CCL2 gene expression (Th2-mediated stimulation, compared to stimulated and untreated): 76-85%
- inhibition of interleukin IL-4 expression [1]: 75%
- inhibition of interleukin IL-13 expression [1]: 93%
- inhibition of interleukin IL-31 expression [1]: 95%
- reduction in CXCL10, IL-17a, IL-36γ, IL-4, IL-13 or IL-31 levels (human skin induced to exhibit Th2 or Th17 phenotype): > 75%

From patent publication US20250339409A1, “USES OF PAN BET INHIBITORS” (VYNE THERAPEUTICS INC., priority 2021, published 2025)
